From US20150376198A1, “MODULATORS OF VASOPRESSIN RECEPTORS WITH THERAPEUTIC POTENTIAL” (priority 2013, published 2015) come the findings set out here.

The test deals with human Arginine Vasopressin Receptor 1a (AVPR1a) (Homo sapiens, UniProt P37288). Kind of test: cell-based.

Read-outs that look alike come from different tables or passages of the source.

Sequence of human Arginine Vasopressin Receptor 1a (AVPR1a) (P37288 whole entry): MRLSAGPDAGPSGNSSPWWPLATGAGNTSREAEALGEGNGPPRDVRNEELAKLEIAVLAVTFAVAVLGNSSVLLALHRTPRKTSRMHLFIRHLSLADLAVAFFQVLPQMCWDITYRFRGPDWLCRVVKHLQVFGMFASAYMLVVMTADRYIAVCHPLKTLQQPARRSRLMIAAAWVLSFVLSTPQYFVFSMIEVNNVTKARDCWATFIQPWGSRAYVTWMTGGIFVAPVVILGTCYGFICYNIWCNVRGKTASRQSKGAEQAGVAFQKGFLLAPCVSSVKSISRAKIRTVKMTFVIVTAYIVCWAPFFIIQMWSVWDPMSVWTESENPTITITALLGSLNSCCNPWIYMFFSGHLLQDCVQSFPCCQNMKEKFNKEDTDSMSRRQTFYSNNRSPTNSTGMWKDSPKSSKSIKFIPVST

Usually IC50 stands for the concentration needed to halve the response being measured. For the compound `O=C(N1CCN(c2ncccc2Cl)CC1)N1CCCCc2cc(Cl)ccc21` [Compound 125], where the note is “read-out: V1a-R IC50”, the IC50 turned out to be 57 nM. `O=C(c1ccccc1)N1CCC(C(=O)N2CCCCc3cc(Cl)ccc32)CC1` [Compound 83]: the IC50 (read-out: V1a-R IC50) was found to be 1820 nM. Still for that read-out and setting: the same measure for `N#Cc1ccnc(N2CCC(C(=O)N3CCCCc4cc(Cl)ccc43)CC2)c1` [Compound 177]: 28 nM. In the case of `O=C(C1CCN(c2ccccn2)CC1)N(CC1CC1)c1ccc(Cl)cc1` [Compound 154], the IC50 (read-out: V1a-R IC50) is 15 nM.

Regarding `O=C(C1CCN(c2ncnc3ccc(F)cc23)CC1)N1CCCCc2cc(Cl)ccc21` [Compound 212], the IC50 (read-out: V1a-R IC50) came out at 49 nM. As to `CC(C)(C)C(=O)N1CCC(C(=O)N2CCCCc3cc(Cl)ccc32)CC1` [Compound 82], the IC50 (read-out: V1a-R IC50) was found to be 2490 nM.

`O=C(N1CCN(c2ncc(Cl)cn2)CC1)N(CC1CC1)c1ccc(Cl)cc1` [Compound 157]: the IC50 (read-out: V1a-R IC50) was 206 nM.

On to `O=C(N1CCN(c2ncc(F)cn2)CC1)N(CC1CC1)c1ccc(Cl)cc1` [Compound 155], for which the IC50 (read-out: V1a-R IC50) came out at 106 nM. For the compound `Cc1cc(C)nc(N2CCC(C(=O)N(CCC(C)C)c3ccc(Cl)cc3)CC2)n1` [Compound 199], where the note is “read-out: V1a-R IC50”, the IC50 is 794 nM.

As for `Cc1cnc(N2CCN(C(=O)N(CC3CC3)c3ccc(Cl)cc3)CC2)nc1` [Compound 156], the IC50 (read-out: V1a-R IC50) is 17 nM. Turning to `COc1ccnc(N2CCC(C(=O)N3CCCCc4cc(Cl)ccc43)CC2)n1` [Compound 175], where the note is “read-out: V1a-R IC50”, the IC50 stood at 11 nM. As to `O=C(c1c[nH]c2ccccc12)N1CCC(C(=O)N2CCCCc3cc(Cl)ccc32)CC1` [Compound 120], the half-maximal inhibitory concentration (IC50) (read-out: V1a-R IC50) is 249 nM. Consider `CCc1cnc(N2CCC(C(=O)N3CCCCc4cc(Cl)ccc43)CC2)nc1` [Compound 182], for which the IC50 (read-out: V1a-R IC50) came to 49 nM. Take `O=C(C1CCN(c2ncc3ccccc3n2)CC1)N(CC1CC1)c1ccc(Cl)cc1` [Compound 204]: the half-maximal inhibitory concentration (IC50) (read-out: V1a-R IC50) amounted to 97 nM. As for `C#CCN(C(=O)C1CCN(c2nc(C)cc(C)n2)CC1)c1ccc(Cl)cc1` [Compound 201], the IC50 (read-out: V1a-R IC50) turned out to be 28 nM. Turning to `O=C(C1CCN(c2ccc(F)cn2)CC1)N(CC1CC1)c1ccc(Cl)cc1` [Compound 146], 24 nM corresponded to half-maximal inhibition (IC50).

With `N#Cc1ccnc(N2CCC(C(=O)N(CC3CC3)c3ccc(Cl)cc3)CC2)c1` [Compound 173], the IC50 (read-out: V1a-R IC50) is 63 nM.

For the compound `COc1ccc(C(=O)N2CCC(C(=O)N3CCCCc4cc(Cl)ccc43)CC2)cc1` [Compound 85], the IC50 (read-out: V1a-R IC50) came to 1780 nM. Take `Cc1ccnc(N2CCN(C(=O)N(CC3CC3)c3ccc(Cl)cc3)CC2)c1` [Compound 161]: under “read-out: V1a-R IC50”, the IC50 amounted to 16 nM. Still for that read-out and setting: the same measure for `O=C(c1cccc(F)c1F)N1CCC(C(=O)N2CCCCc3cc(Cl)ccc32)CC1` [Compound 91]: 1860 nM; for `O=C(C1CCN(c2ncnc3ccc(F)cc23)CC1)N(CC1CC1)c1ccc(Cl)cc1` [Compound 205]: 74 nM.

For `O=C(C1CCN(c2ncc3c(n2)CCC3)CC1)N(CC1CC1)c1ccc(Cl)cc1` [Compound 208], the IC50 (read-out: V1a-R IC50) is 33 nM. In the case of `Cc1nc(N2CCC(C(=O)N3CCCCc4cc(Cl)ccc43)CC2)c2ccccc2n1` [Compound 185], the half-maximal inhibitory concentration (IC50) (read-out: V1a-R IC50) worked out at 32 nM. As to `Cc1cc(C)nc(N2CCN(C(=O)N(CC3CC3)c3ccc(Cl)cc3)CC2)n1` [Compound 158], the IC50 (read-out: V1a-R IC50) was 24 nM. Same read-out and setting: the same measure for `Cc1ccnc(N2CCC(C(=O)N(CC3CC3)c3ccc(Cl)cc3)CC2)c1` [Compound 148]: 3 nM; for `O=C(c1ccc(F)c(F)c1)N1CCC(C(=O)N2CCCCc3cc(Cl)ccc32)CC1` [Compound 90]: 1520 nM. `O=C(C1CCN(c2ccc(Cl)cn2)CC1)N(CC1CC1)c1ccc(Cl)cc1` [Compound 141]: the IC50 is 40 nM. On to `O=C(C1CCN(c2ncc(C(F)(F)F)cn2)CC1)N1CCCCc2cc(Cl)ccc21` [Compound 210], for which, for the setting “read-out: V1a-R IC50”, the half-inhibitory concentration (IC50) worked out at 89 nM.

As for `O=C(C1CCN(c2ncc(C3CC3)cn2)CC1)N(CC1CC1)c1ccc(Cl)cc1` [Compound 202], the IC50 (read-out: V1a-R IC50) was determined as 348 nM. Consider `CCC(CC)C(=O)N1CCC(C(=O)N2CCCCc3cc(Cl)ccc32)CC1` [Compound 79], for which, for the setting “read-out: V1a-R IC50”, the IC50 amounted to 5400 nM. On to `Cc1cccnc1N1CCC(C(=O)N(CC2CC2)c2ccc(Cl)cc2)CC1` [Compound 147], for which, under “read-out: V1a-R IC50”, the IC50 came to 7 nM. Regarding `O=C(C1CCN(c2ccc(Cl)cn2)CC1)N1CCCCc2cc(Cl)ccc21` [Compound 225], under “read-out: V1a-R IC50”, the half-inhibitory concentration (IC50) was found to be 11 nM. On the same count and under the same terms, the same measure for `O=C(C1CCN(c2ccc(F)cn2)CC1)N1CCCCc2cc(Cl)ccc21` [Compound 224]: 11 nM; for `O=C(C1CCN(c2ncc(Cl)cc2F)CC1)N(CC1CC1)c1ccc(Cl)cc1` [Compound 219]: 61 nM. Still for that read-out and setting: the same measure for `O=C(C1CCN(c2ncc(F)cn2)CC1)N(CC1CC1)c1ccc(Cl)cc1` [Compound 168]: 91 nM. The same measure, in the same setting: the same measure for `O=C(N1CCN(c2ccccn2)CC1)N1CCCCc2cc(Cl)ccc21` [Compound 122]: 80 nM; for `O=C(C1CCN(c2ccc(C(F)(F)F)cn2)CC1)N1CCCCc2cc(Cl)ccc21` [Compound 226]: 20 nM. In the case of `O=C(c1csc2ccccc12)N1CCC(C(=O)N2CCCCc3cc(Cl)ccc32)CC1` [Compound 119], where the note is “read-out: V1a-R IC50”, the 50% inhibitory concentration (IC50) was 621 nM.

With `Cc1ccnc(N2CCC(C(=O)N(CC3CC3)c3ccc(Cl)cc3)CC2)n1` [Compound 169], the half-inhibitory concentration (IC50) (read-out: V1a-R IC50) is 51 nM. For `O=C(N1CCC2(CC1)OCc1ccccc12)N1CCCCc2cc(Cl)ccc21` [V:293], the IC50 (read-out: V1a-R IC50) is 78 nM. `Cc1cccnc1N1CCN(C(=O)N(CC2CC2)c2ccc(Cl)cc2)CC1` [Compound 160]: for the setting “read-out: V1a-R IC50”, the IC50 is 8 nM.

As for `O=C(C1CCN(c2ncnc3cc(Cl)ccc23)CC1)N1CCCCc2cc(Cl)ccc21` [Compound 187], the IC50 (read-out: V1a-R IC50) stood at 66 nM. With `O=C(N1CCC(c2ccccc2)CC1)N1CCCCc2cc(Cl)ccc21` [Compound 131], where the note is “read-out: V1a-R IC50”, the IC50 came to 83 nM. Turning to `N#Cc1ccc(C(=O)N2CCC(C(=O)N3CCCCc4cc(Cl)ccc43)CC2)c(F)c1` [Compound 114], under “read-out: V1a-R IC50”, the 50% inhibitory concentration (IC50) turned out to be 9480 nM.

As to `Cc1nc(N2CCC(C(=O)N3CCCCc4cc(Cl)ccc43)CC2)ncc1F` [Compound 183], the IC50 (read-out: V1a-R IC50) worked out at 16 nM. On the same count and under the same terms, the same measure for `O=C(N1CCC(O)(c2ccccc2)CC1)N1CCCCc2cc(Cl)ccc21` [Compound 133]: 137 nM. With `CS(=O)(=O)c1ccc(C(=O)N2CCC(C(=O)N3CCCCc4cc(Cl)ccc43)CC2)cc1` [Compound 118], for the setting “read-out: V1a-R IC50”, the half-inhibitory concentration (IC50) was 12900 nM. With `Cc1cc(C)nc(N2CCC(C(=O)N(CC3CC3)c3ccc(Cl)cc3)CC2)n1` [Compound 151], the IC50 (read-out: V1a-R IC50) came out at 8 nM. On to `Cc1cc(C)nc(N2CCC(C(=O)N(CC3(C)COC3)c3ccc(Cl)cc3)CC2)n1` [Compound 227], for which the IC50 (read-out: V1a-R IC50) came out at 517 nM.

As for `Cc1ccnc(N2CCC(C(=O)N3CCCCc4cc(Cl)ccc43)CC2)n1` [Compound 180], where the note is “read-out: V1a-R IC50”, the IC50 was 17 nM. With `N#Cc1ccnc(N2CCC(C(=O)N(CC3CC3)c3ccc(Cl)cc3)CC2)n1` [Compound 170], where the note is “read-out: V1a-R IC50”, the IC50 was 96 nM. As for `O=C(C1CCN(c2nccc(C(F)(F)F)n2)CC1)N1CCCCc2cc(Cl)ccc21` [Compound 174], the concentration for half-maximal inhibition (IC50) (read-out: V1a-R IC50) was determined as 82 nM. Compound `O=C(C1CCN(c2ncccc2F)CC1)N(CC1CC1)c1ccc(Cl)cc1` [Compound 140] showed an IC50 of 15 nM.

On to `O=C(C1CCN(c2cnccn2)CC1)N(CC1CC1)c1ccc(Cl)cc1` [Compound 152], for which the IC50 (read-out: V1a-R IC50) stood at 45 nM. As to `N#Cc1ccc(N2CCC(C(=O)N3CCCCc4cc(Cl)ccc43)CC2)nc1` [Compound 112], under “read-out: V1a-R IC50”, the IC50 amounted to 1230 nM. On the same count and under the same terms, the same measure for `Cc1cc(N2CCC(C(=O)N3CCCCc4cc(Cl)ccc43)CC2)ncc1Cl` [Compound 220]: 7 nM. Compound `O=C(C1CCN(c2cc(C(F)(F)F)ccn2)CC1)N(CC1CC1)c1ccc(Cl)cc1` [Compound 179] showed an IC50 of 37 nM.

Regarding `CCCN(C(=O)C1CCN(c2nc(C)cc(C)n2)CC1)c1ccc(Cl)cc1` [Compound 198], for the setting “read-out: V1a-R IC50”, the IC50 amounted to 284 nM. Consider `O=C(C1CCN(c2nccc(C(F)(F)F)n2)CC1)N(CC1CC1)c1ccc(Cl)cc1` [Compound 171], for which, under “read-out: V1a-R IC50”, the IC50 came to 146 nM. On the same count and under the same terms, the same measure for `N#Cc1ccnc(N2CCC(C(=O)N3CCCCc4cc(Cl)ccc43)CC2)n1` [Compound 181]: 81 nM; for `O=C(c1ccc(Cl)cc1Cl)N1CCC(C(=O)N2CCCCc3cc(Cl)ccc32)CC1` [Compound 89]: 1800 nM. Still for that read-out and setting: as for `O=C(C1CCN(c2ncccc2C(F)(F)F)CC1)N(CC1CC1)c1ccc(Cl)cc1` [Compound 143], the figure is 84 nM; as for `O=C(C1CCN(c2ncnc3cc(Cl)ccc23)CC1)N(CC1CC1)c1ccc(Cl)cc1` [Compound 193], 861 nM; as for `O=C(C1CCN(c2ncccn2)CC1)N1CCCCc2cc(Cl)ccc21` [Compound 110], 207 nM. For `Cc1cc(C)nc(N2CCC(C(=O)N3CCCC(=O)c4cc(Cl)ccc43)CC2)n1` [Compound 194], the IC50 (read-out: V1a-R IC50) worked out at 158 nM.

Regarding `Cc1cccnc1N1CCN(C(=O)N2CCCCc3cc(Cl)ccc32)CC1` [Compound 124], the IC50 (read-out: V1a-R IC50) came to 40 nM. Regarding `Cc1cc(C)nc(N2CCC(C(=O)N3CCCC(F)c4cc(Cl)ccc43)CC2)n1` (stereo not shown) [Compound 196], the IC50 (read-out: V1a-R IC50) amounted to 84 nM. For `Cc1cnc(N2CCC(C(=O)N(CC3CC3)c3ccc(Cl)cc3)CC2)nc1` [Compound 166], the 50% inhibitory concentration (IC50) (read-out: V1a-R IC50) was determined as 38 nM.

With `O=C(c1ccccc1F)N1CCC(C(=O)N2CCCCc3cc(Cl)ccc32)CC1` [Compound 84], the concentration for half-maximal inhibition (IC50) (read-out: V1a-R IC50) came to 1490 nM. Same read-out and setting: the same measure for `Cc1noc(C)c1C(=O)N1CCC(C(=O)N2CCCCc3cc(Cl)ccc32)CC1` [Compound 80]: 15100 nM; for `Cc1nc(N2CCC(C(=O)N3CCCCc4cc(Cl)ccc43)CC2)ncc1Cl` [Compound 184]: 26 nM. For `O=C1Nc2ccccc2C2(CCN(C(=O)N3CCCCc4cc(Cl)ccc43)CC2)O1` [V:292], the IC50 (read-out: V1a-R IC50) was found to be 305 nM. Regarding `Cc1cnc(N2CCC(C(=O)N3CCCCc4cc(Cl)ccc43)CC2)c(F)c1` [Compound 222], under “read-out: V1a-R IC50”, the IC50 turned out to be 5 nM.

Turning to `N#Cc1cc(C(=O)N2CCC(C(=O)N3CCCCc4cc(Cl)ccc43)CC2)ccc1F` [Compound 115], the IC50 (read-out: V1a-R IC50) is 5280 nM. For the compound `O=C(C1CCN(c2nc3ccc(Cl)cc3o2)CC1)N(CC1CC1)c1ccc(Cl)cc1` [Compound 207], the IC50 (read-out: V1a-R IC50) is 350 nM. As to `Cc1cc(N2CCC(C(=O)N(CC3CC3)c3ccc(Cl)cc3)CC2)ncc1Cl` [Compound 216], the half-maximal inhibitory concentration (IC50) (read-out: V1a-R IC50) turned out to be 41 nM.
